Source: article PMC7494974, “Olfactory Reception of Host Alarm Pheromone Component by the Odorant-Binding Proteins in the Samurai Wasp, Trissolcus japonicus (Hymenoptera: Scelionidae)” (Frontiers in Physiology, 2020)

Experiments:
Assay type in all cases: binding
TjapOBP2 [1] = target: T1, TjapOBP2 (Trissolcus japonicus, UniProt A0A7G6J4J8); assay: fluorescence titration, Scatchard; conditions: 50 mM Tris-HCl pH 7.4; excitation 337 nm; fluorescent probe
T1 construct: gene OBP2; mature, signal peptide removed; E. coli BL21; His-tag cleaved; ~15 kDa on SDS-PAGE; classical OBP; by primers starts KRPDFIDDDM and ends QCIINNCPEMWFIV
T1 sequence (A0A7G6J4J8 23-142): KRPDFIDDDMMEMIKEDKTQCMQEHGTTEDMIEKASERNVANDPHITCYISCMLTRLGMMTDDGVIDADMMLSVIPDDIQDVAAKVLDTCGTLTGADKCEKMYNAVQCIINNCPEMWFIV

TjapOBP3 [2] = target: T2, TjapOBP3 (Trissolcus japonicus, UniProt A0A7G6J4J9); assay: fluorescence titration, Scatchard; conditions: 50 mM Tris-HCl pH 7.4; excitation 337 nm; fluorescent probe
T2 construct: gene OBP3; mature, signal peptide removed; E. coli BL21; His-tag cleaved; ~15 kDa on SDS-PAGE; classical OBP; by primers starts KLSVPQLK and ends CWYHKNPEMYIFP
T2 sequence (A0A7G6J4J9 22-142): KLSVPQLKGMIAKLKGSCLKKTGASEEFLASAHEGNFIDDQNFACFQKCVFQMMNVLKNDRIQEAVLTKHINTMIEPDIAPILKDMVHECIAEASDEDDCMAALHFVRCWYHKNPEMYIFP

TjapOBP2 [3] = target: T1, TjapOBP2; assay: competitive fluorescence displacement of 1-NPN
TjapOBP3 [4] = target: T2, TjapOBP3; assay: competitive fluorescence displacement of 1-NPN; conditions: 50 mM Tris-HCl pH 7.4; excitation 337 nm; competitive with 1-NPN

IC50 (TjapOBP2 [3])	SMILES	K1-NPN (TjapOBP2 [1])	K1-NPN (TjapOBP3 [2])	competitive fluorescence displacement of 1-NPN (TjapOBP3 [4])
–	c1ccc(Nc2cccc3ccccc23)cc1 [1-NPN]	The fluorescent probe 1-NPN was used to bind the selected OBPs	The fluorescent probe 1-NPN was used to bind the selected OBPs	–
7.92 ± 1.03 µM	CCCCCCC/C=C/C=O [(E)-2-decenal]	–	–	TjapOBP1 and TjapOBP3 had a weak ability to bind (E)-2-decenal
